Results taken from patent US5574009A, “Method of stimulating myelination of cells” (Trustees of the University Of Pennsylvania, priority 1994, dated 1996).

Test system: neonatal rat optic nerve cultures
Experiment: Mitomycin C treatment of optic nerve cultures
Assay type: cell-based
Settings: 25 μg/ml for 30 minutes, PND-1, then 24 or 48 hours
Experimental: A stock solution of 0.5 mg/ml mitomycin C (Sigma) in HBSS (Gibco) was prepared and stored at 4° C. in the dark. Cultures were treated with 25 μg/ml mitomycin C diluted in N2/0.5% FCS for 30 minutes at 37° C. in the dark. The cultures were washed twice with N2/0.5% FCS and cultured for an additional 24 or 48 hours.
To test whether inhibition of proliferation per se affected the timing of GalC(+) appearance, optic nerve cultures prepared on PND-1 were treated with mitomycin C. After plating, the cells were incubated with 25 μg/ml mitomycin C for 30 minutes. After washing, the cultures were carried for an additional 24 or 48 hours.

## CO[C@@]12[C@H](COC(N)=O)C3=C(C(=O)C(C)=C(N)C3=O)N1C[C@@H]1N[C@@H]12 [mitomycin C]
  numbers of A2B5(+) cells: Decreased numbers of A2B5(+) cells
  proportion of GalC(+) cells: without a concomitant increase in the proportion of GalC(+) cells
